{"source": "patent US8137700B2", "about": "“Main chain acid-degradable polymers for the delivery of bioactive materials” (U.S. Department of Energy, priority 2006, dated 2012)", "tested_on": "LacZ B3Z hybridoma", "assay": "LacZ MHC Class I antigen presentation assay", "assay_type": "cell-based", "procedure": "In one embodiment, particles prepared from these acid degradable epolymer backbones are designed to release their bioactive material payload into the cytoplasm of cells upon lysosomal destabilization. Higher loading capacity of the particles may also lead to greater antigen presentation of the encapsulated bioactive material. In the antigen presentation assay described by Sanderson, S.; Shastri, N. in Inter. Immun. 1994, 6, 369-376, the β-galactosidase activity of B3Z T cells is measured. Antigen presenting cells display the peptide having the sequence, […] (SEQ ID NO: 8), upon phagocytosis of ovalbumin. These cells are engineered to transcribe β-galactosidase when in the presence of antigen presenting cells displaying the […] peptide (SEQ ID NO: 8). β-galactosidase then liberates chlorophenol red from the chlorophenol red βgalactoside that is present in solution. Absorbance of chlorophenol red is measured by UV absorbance at 595 nm. Therefore this assay can be used as a measurement of the amount of bioactive material delivered into the cytoplasm of cells by the microgel particles of the invention by measuring the amount of liberated chlorophenol red by UV absorbance at 595 nm.\nThe LacZ MHC Class I antigen presentation assay, as described by the antigen Sanderson, S.; Shastri, N. in Inter. Immun. 1994, 6, 369-376, is performed with degradable polymer particles made according to Example 7 with the degradable polymers in Example 1 and 3 to test their ability to deliver proteins into APCs for Class I antigen presentation. This experiment uses the LacZ B3Z hybridoma, which is a CTL that recognizes the peptide sequence, […] (SEQ ID NO: 8), from ovalbumin, complexed with the MHC Class I molecule H-2 K^b. This hybridoma produces P-galactosidase after encountering APCs that present […] as a Class I antigen, thus allowing Class I antigen presentation to be quantified by measuring β-galactosidase activity.\nA maximum absorbance of 0.25 is observed with the […] peptide (SEQ ID NO: 8), which results in 100% T-cell activation. At about 0.4 mg of particle/mL, degradable particles made as in Examples 1, should show an absorbance close to that of 0.25 at which 100% T-cell activation occurs.", "data": [{"substance": "SIINFEKL", "values": [{"measurement": "T-cell activation", "setting": "at maximum absorbance", "result": 100, "unit": "%"}, {"measurement": "maximum absorbance", "setting": "chlorophenol red, 595 nm", "result": 0.25}]}, {"substance": "free ovalbumin: free ovalbumin protein, comparator", "values": [{"measurement": "U.V. absorbance resulting from activation", "setting": "1 mg/ml of free ovalbumin", "result": 0.037}, {"measurement": "activation of CTLs by APCs", "setting": "APCs incubated with the substance", "result": "not able to activate CTLs"}]}]}
